The record followed here is PMC3098721 (Molecular microbiology, 2010).

The test has as its target PqsH (MBP-PqsH) (Pseudomonas aeruginosa, UniProt Q02N79). The experiment in a line: PQS fluorescence after ethyl acetate extraction, Michaelis-Menten fit. The test is classed as biochemical. Particulars: NADH and O2 constant at saturating levels; pH 8.0.

PqsH (MBP-PqsH), sequence (Q02N79 2-382): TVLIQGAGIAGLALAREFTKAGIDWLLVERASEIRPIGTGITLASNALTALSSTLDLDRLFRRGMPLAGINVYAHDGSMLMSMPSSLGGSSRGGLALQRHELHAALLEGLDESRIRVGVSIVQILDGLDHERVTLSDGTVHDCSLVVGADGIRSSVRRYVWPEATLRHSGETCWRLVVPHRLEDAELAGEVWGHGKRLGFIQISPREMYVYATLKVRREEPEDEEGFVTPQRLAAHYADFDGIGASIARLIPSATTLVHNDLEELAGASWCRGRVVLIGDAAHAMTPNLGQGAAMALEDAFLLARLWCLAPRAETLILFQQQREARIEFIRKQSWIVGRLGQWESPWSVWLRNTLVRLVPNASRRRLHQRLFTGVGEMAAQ

As for `CCCc1cc(=O)c2ccccc2[nH]1` [C3-HHQ], the Km entry is given as “almost entirely due to elevated Km values”.
